Results as given in patent publication US20120196854A1, “PHARMACEUTICAL COMPOSITION COMPRISING AROMATIC HETEROCYCLIC COMPOUND” (Kyowa Hakko Kirin Co., Ltd., priority 2009, published 2012).

Key:
Format in all cases: biochemical
[1] = target: T1, human lipocalin-prostaglandin D2 synthase (human lipocalin-PGDS) (Homo sapiens, UniProt P41222); assay: Inhibition of human lipocalin-PGDS enzyme activity; details: at a concentration of 10 μmol/L; read-out: inhibitory rate, human lipocalin-PGDS
T1 sequence (P41222 23-190): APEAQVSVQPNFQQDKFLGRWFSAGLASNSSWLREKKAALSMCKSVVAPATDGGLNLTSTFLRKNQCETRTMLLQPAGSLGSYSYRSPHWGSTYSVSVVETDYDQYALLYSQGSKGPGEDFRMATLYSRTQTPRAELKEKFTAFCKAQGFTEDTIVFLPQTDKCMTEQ

[2] = target: T2, human H-PGDS (Homo sapiens, UniProt O60760); assay: H-PGDS inhibitory activity (Prostaglandin D Synthase Inhibitor Screening Assay Kit); details: at a concentration of 1 μmol/L; read-out: H-PGDS inhibitory rate
T2 construct: purchased Cayman Chemical 10006593
Protocol: The H-PGDS inhibitory activity of Compound (I) was calculated according to the following protocol attached to Prostaglandin D Synthase Inhibitor Screening Assay Kit (Cat. No. 10006595, Cayman Chemical, Ann Arbor, Mich., USA).
(§1) First, to a 96-well round-bottom plate (Cat. No. 3882-096, Asahi Techno Glass, Chiba), 60 μL/well of an enzyme assay buffer (0.1 mol/L Tris-HCl, pH 8.0), 10 μL/well of a human H-PGDS [Cat. No. 10006593 (human), Cayman Chemical, Ann Arbor, Mich., USA] at a final concentration of 0.125 μg/mL, 10 μL/well of reduced glutathione at a final concentration of 1 mmol/L, and 10 μL/well of Compound (I) diluted with the enzyme assay buffer were added and lightly mixed. The plate was allowed to stand at room temperature for 10 minutes, and then 10 μL/well of prostaglandin H2(PGH2) (Cat. No. 17020, Cayman Chemical) at a final concentration of 50 μmol/L was added thereto to start enzyme reaction. The reaction was allowed to proceed with mixing by a plate mixer for 1 minute. After the enzyme reaction, 10 μL/well of a 4 mg/mL FeCl2-HCl solution prepared by dissolving FeCl2 in 1 mol/L hydrochloric acid was added to stop the reaction and reduce PGH2 simultaneously. The enzyme reaction solution (100 μL/well) was transferred to a 96-well UV-Star half area plate (Cat. No. 675801, Greiner, Frickenhausen, Germany), and measured for absorbance at 232 nm using a microplate reader Power Wave (BioTek Instrument Inc., Winooski, Vt., USA).
The H-PGDS inhibitory activity (inhibitory rate) of Compound (I) was calculated by the following formula.
The H-PGDS inhibitory activity of Compound 133 was calculated according to the following protocol attached to Prostaglandin D Synthase Inhibitor Screening Assay Kit (Cat. No. 10006595, Cayman Chemical, Ann Arbor, Mich., USA).
as §1, with “133” for “(I)”
The H-PGDS inhibitory activity (inhibitory rate) of Compound 133 was calculated according to the method in Test Example 1.

[3] = target: cyclooxygenase-1 (COX-1) (Homo sapiens, UniProt P23219); assay: Inhibition of COX-1 enzyme activity; details: at a concentration of 10 μmol/L; read-out: inhibitory rate, COX-1
cyclooxygenase-1 (COX-1), sequence (P23219 24-599, species assumed): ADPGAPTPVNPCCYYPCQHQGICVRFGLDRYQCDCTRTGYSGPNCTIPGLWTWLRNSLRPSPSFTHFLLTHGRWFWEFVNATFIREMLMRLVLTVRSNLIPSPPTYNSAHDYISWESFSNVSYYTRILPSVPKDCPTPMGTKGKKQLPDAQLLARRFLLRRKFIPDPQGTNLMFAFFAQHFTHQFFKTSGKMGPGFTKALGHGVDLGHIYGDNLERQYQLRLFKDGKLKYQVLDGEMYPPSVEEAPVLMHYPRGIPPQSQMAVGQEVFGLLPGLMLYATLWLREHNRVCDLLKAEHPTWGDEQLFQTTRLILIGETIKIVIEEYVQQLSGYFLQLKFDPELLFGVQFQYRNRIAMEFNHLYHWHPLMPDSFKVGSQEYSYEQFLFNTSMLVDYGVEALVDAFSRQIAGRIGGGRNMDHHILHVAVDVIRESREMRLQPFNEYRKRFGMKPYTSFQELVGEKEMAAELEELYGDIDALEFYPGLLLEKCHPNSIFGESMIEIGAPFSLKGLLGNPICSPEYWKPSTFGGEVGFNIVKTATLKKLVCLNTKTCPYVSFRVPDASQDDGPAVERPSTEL

T2 sequence (O60760 whole entry): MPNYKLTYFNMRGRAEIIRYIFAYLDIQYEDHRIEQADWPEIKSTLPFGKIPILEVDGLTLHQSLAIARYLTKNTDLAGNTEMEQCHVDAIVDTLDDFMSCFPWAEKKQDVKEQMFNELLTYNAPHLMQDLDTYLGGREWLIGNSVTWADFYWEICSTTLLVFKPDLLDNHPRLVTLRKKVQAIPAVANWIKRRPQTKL

`O=C(O)c1cc(-c2ccco2)nc2ccc3nn(-c4ccccc4)nc3c12` [Compound 133, 7-(furan-2-yl)-2-phenyl-2H-[1,2,3]triazolo[4,5-f]quinoline-9-carboxylic acid] was tested, and the inhibition at 10 µM [1] was ≤ 20%, the inhibition at 1 µM [2] was 73% and the inhibition at 10 µM [3] was ≤ 20%.
